PubChem BioAssay (NCI)
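Values below derive from 48-hour exposures of cells grown in 96-well plates, with endpoints linearly interpolated between the two concentrations bracketing the appropriate inhibition level. GI50 marks 50% less growth. TGI: total growth inhibition.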

Key:
Experiment in all cases: inhibition of tumour cell growth, NCI panel, 48 h
MALME-3M melanoma = tested on: MALME-3M melanoma
HT29 colon = tested on: HT29 colon
COLO 205 colon = tested on: COLO 205 colon
NCI-H226 lung = tested on: NCI-H226 lung
UACC-62 melanoma = tested on: UACC-62 melanoma
M14 melanoma = tested on: M14 melanoma
SK-MEL-5 melanoma = tested on: SK-MEL-5 melanoma
ACHN renal = tested on: ACHN renal
K-562 leukemia = tested on: K-562 leukemia
U251 CNS = tested on: U251 CNS
HCC-2998 colon = tested on: HCC-2998 colon
RXF 393 renal = tested on: RXF 393 renal
HL-60(TB) leukemia = tested on: HL-60(TB) leukemia
BT-549 breast = tested on: BT-549 breast
SK-OV-3 ovarian = tested on: SK-OV-3 ovarian
CCRF-CEM leukemia = tested on: CCRF-CEM leukemia
UO-31 renal = tested on: UO-31 renal
SF-295 CNS = tested on: SF-295 CNS
SR leukemia = tested on: SR leukemia
HOP-92 NSCLC = tested on: HOP-92 NSCLC
A549 NSCLC = tested on: A549 NSCLC
A498 renal = tested on: A498 renal
EKVX NSCLC = tested on: EKVX NSCLC
SK-MEL-2 melanoma = tested on: SK-MEL-2 melanoma
SF-268 CNS = tested on: SF-268 CNS
SK-MEL-28 melanoma = tested on: SK-MEL-28 melanoma
OVCAR-8 ovarian = tested on: OVCAR-8 ovarian
HOP-62 NSCLC = tested on: HOP-62 NSCLC
RPMI-8226 leukemia = tested on: RPMI-8226 leukemia
SF-539 CNS = tested on: SF-539 CNS
TK-10 renal = tested on: TK-10 renal
MOLT-4 leukemia = tested on: MOLT-4 leukemia
MDA-MB-435 = tested on: MDA-MB-435
NCI-H522 lung = tested on: NCI-H522 lung
MCF7 breast = tested on: MCF7 breast
786-0 renal = tested on: 786-0 renal
OVCAR-4 ovarian = tested on: OVCAR-4 ovarian
SNB-75 CNS = tested on: SNB-75 CNS
KM12 colon = tested on: KM12 colon
DU-145 prostate = tested on: DU-145 prostate
HS 578T breast = tested on: HS 578T breast
UACC-257 melanoma = tested on: UACC-257 melanoma
MDA-MB-231 breast = tested on: MDA-MB-231 breast
NCI/ADR-RES ovarian = tested on: NCI/ADR-RES ovarian
SN12C renal = tested on: SN12C renal
OVCAR-5 ovarian = tested on: OVCAR-5 ovarian

Cc1ccc2c(c1)Oc1nc(N)c(C#N)c(N)c1C2Sc1ccc(F)cc1 (stereo unspecified)
GI50 (MALME-3M melanoma): 992 nM
TGI (MALME-3M melanoma): 2340 nM
GI50 (HT29 colon): 1820 nM
TGI (HT29 colon): 3430 nM
GI50 (COLO 205 colon): 1330 nM
TGI (COLO 205 colon): 2780 nM
GI50 (NCI-H226 lung): 1530 nM
TGI (NCI-H226 lung): 4160 nM
GI50 (UACC-62 melanoma): 1500 nM
TGI (UACC-62 melanoma): 2870 nM
GI50 (M14 melanoma): 1440 nM
TGI (M14 melanoma): 2850 nM
GI50 (SK-MEL-5 melanoma): 1570 nM
TGI (SK-MEL-5 melanoma): 2950 nM
GI50 (ACHN renal): 1340 nM
TGI (ACHN renal): 2630 nM
GI50 (K-562 leukemia): 309 nM
TGI (K-562 leukemia): > 100000 nM
GI50 (U251 CNS): 1170 nM
TGI (U251 CNS): 2490 nM
GI50 (HCC-2998 colon): 1510 nM
TGI (HCC-2998 colon): 2920 nM
GI50 (RXF 393 renal): 611 nM
TGI (RXF 393 renal): 1690 nM
GI50 (HL-60(TB) leukemia): 242 nM
TGI (HL-60(TB) leukemia): 647 nM
GI50 (BT-549 breast): 415 nM
TGI (BT-549 breast): 1710 nM
GI50 (SK-OV-3 ovarian): 1800 nM
TGI (SK-OV-3 ovarian): 3290 nM
GI50 (CCRF-CEM leukemia): 201 nM
TGI (CCRF-CEM leukemia): > 100000 nM
GI50 (UO-31 renal): 215 nM
TGI (UO-31 renal): 1720 nM
GI50 (SF-295 CNS): 1680 nM
TGI (SF-295 CNS): 3070 nM
GI50 (SR leukemia): 301 nM
TGI (SR leukemia): > 100000 nM
GI50 (HOP-92 NSCLC): 1140 nM
TGI (HOP-92 NSCLC): 2440 nM
GI50 (A549 NSCLC): 1550 nM
TGI (A549 NSCLC): 3010 nM
GI50 (A498 renal): 1450 nM
TGI (A498 renal): 2780 nM
GI50 (EKVX NSCLC): 1220 nM
TGI (EKVX NSCLC): 2470 nM
GI50 (SK-MEL-2 melanoma): 1300 nM
TGI (SK-MEL-2 melanoma): 2600 nM
GI50 (SF-268 CNS): 1230 nM
TGI (SF-268 CNS): 2520 nM
GI50 (SK-MEL-28 melanoma): 1170 nM
TGI (SK-MEL-28 melanoma): 2400 nM
GI50 (OVCAR-8 ovarian): 1300 nM
TGI (OVCAR-8 ovarian): 2610 nM
GI50 (HOP-62 NSCLC): 1620 nM
TGI (HOP-62 NSCLC): 3080 nM
GI50 (RPMI-8226 leukemia): 448 nM
TGI (RPMI-8226 leukemia): > 100000 nM
GI50 (SF-539 CNS): 1340 nM
TGI (SF-539 CNS): 2630 nM
GI50 (TK-10 renal): 2230 nM
TGI (TK-10 renal): 3700 nM
GI50 (MOLT-4 leukemia): 306 nM
GI50 (MDA-MB-435): 1260 nM
TGI (MDA-MB-435): 2670 nM
GI50 (NCI-H522 lung): 785 nM
TGI (NCI-H522 lung): 2100 nM
GI50 (MCF7 breast): 361 nM
TGI (MCF7 breast): 1990 nM
GI50 (786-0 renal): 1190 nM
TGI (786-0 renal): 2450 nM
GI50 (OVCAR-4 ovarian): 1450 nM
TGI (OVCAR-4 ovarian): 2780 nM
GI50 (SNB-75 CNS): 956 nM
TGI (SNB-75 CNS): 2330 nM
GI50 (KM12 colon): 1480 nM
TGI (KM12 colon): 2830 nM
GI50 (DU-145 prostate): 1480 nM
TGI (DU-145 prostate): 2820 nM
GI50 (HS 578T breast): 1020 nM
TGI (HS 578T breast): 4220 nM
GI50 (UACC-257 melanoma): 1290 nM
TGI (UACC-257 melanoma): 2580 nM

Cc1[nH]c(C(=O)Nc2ccccc2OCc2cccc(C(=O)NC3CCCNC3)c2)c(Cl)c1Cl (stereo unspecified)
GI50 (MDA-MB-231 breast): 1750 nM
TGI (MDA-MB-231 breast): 3380 nM
GI50 (NCI-H226 lung): 2010 nM
TGI (NCI-H226 lung): 5310 nM
GI50 (SK-MEL-5 melanoma): 1710 nM
TGI (SK-MEL-5 melanoma): 3110 nM
GI50 (ACHN renal): 1660 nM
TGI (ACHN renal): 3110 nM
GI50 (HCC-2998 colon): 2010 nM
TGI (HCC-2998 colon): 3730 nM
GI50 (NCI/ADR-RES ovarian): 2960 nM
TGI (NCI/ADR-RES ovarian): 9880 nM
GI50 (RXF 393 renal): 1480 nM
TGI (RXF 393 renal): 3100 nM
GI50 (BT-549 breast): 2630 nM
TGI (BT-549 breast): 9750 nM
GI50 (SK-OV-3 ovarian): 8910 nM
TGI (SK-OV-3 ovarian): 26900 nM
GI50 (A498 renal): 1800 nM
TGI (A498 renal): 5590 nM
GI50 (SF-539 CNS): 1690 nM
TGI (SF-539 CNS): 3150 nM
GI50 (SN12C renal): 1900 nM
TGI (SN12C renal): 3720 nM
GI50 (MDA-MB-435): 1740 nM
TGI (MDA-MB-435): 3240 nM
GI50 (OVCAR-5 ovarian): 1640 nM
TGI (OVCAR-5 ovarian): 3060 nM
